Reference: patent US9505763B2, “Cancer treatment using BMP inhibitor” (Vanderbilt University, priority 2011, dated 2016)

Columns and labels:
[1] = molecular target: T1, alk2 (Mus musculus, UniProt P37172); conditions: reported [26]; cited from earlier work
T1 construct: host or cells: C2C12
T1 sequence (P37172 21-509): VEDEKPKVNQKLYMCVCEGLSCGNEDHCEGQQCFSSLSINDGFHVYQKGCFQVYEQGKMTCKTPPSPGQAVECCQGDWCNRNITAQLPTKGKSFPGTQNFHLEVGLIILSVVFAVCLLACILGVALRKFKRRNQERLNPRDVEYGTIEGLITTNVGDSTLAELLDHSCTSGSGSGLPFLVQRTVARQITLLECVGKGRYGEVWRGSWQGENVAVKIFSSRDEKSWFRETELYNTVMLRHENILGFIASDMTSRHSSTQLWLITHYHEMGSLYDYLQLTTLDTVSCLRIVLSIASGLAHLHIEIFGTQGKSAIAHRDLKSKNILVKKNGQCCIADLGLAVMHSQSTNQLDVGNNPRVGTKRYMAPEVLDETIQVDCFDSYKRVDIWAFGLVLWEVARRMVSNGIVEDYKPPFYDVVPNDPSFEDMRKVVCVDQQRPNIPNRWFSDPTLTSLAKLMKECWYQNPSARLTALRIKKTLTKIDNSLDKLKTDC

[2] = system: A549 cells; experiment: Ethidium bromide uptake cell death assay; format: cell-based; conditions: 48 hours, 10 μM Dorsomorphin or 1 μM selective antagonist
Method: Cell Death Assay: A549 and H1299 cells were plated in 6 well plates with 10^6 cells per well. Cells were treated with DMSO or a BMP receptor antagonist for 12 and 48 hours. Adherent and floating cells were harvested and incubated with 0.1 mg/ml of ethidium bromide. Immediately after staining approximately 100 cells were counted and the percentage of cells that took up ethidium bromide was determined.

[3] = system: H1299 cells; experiment: Cell counts after 7 days; format: cell-based
Method: (§1) Cell Counts. A549 and H1299 cells were plated into 6 well plates with 100,000 cells per well. Cells were treated with DMSO or a BMP receptor antagonist for 7 days. The cells were detached with trypsin, stained with trypan blue, and the number of live cells counted using a hemacytometer.

[4] = system: A549 cells; experiment: Cell counts after 7 days; format: cell-based; conditions: DMEM 5% FCS, 10 μM Dorsomorphin or 1 μM DMH1, DMH2, LDN
Method: as §1

[5] = system: H1299 cells; experiment: BrdU incorporation assay; format: cell-based; conditions: 1 μM or 5 μM
Method: BrdU Assay. Thirty-thousand H1299 cells were plated into 96 well plates. The next day the cells were treated with 1 μM DMSO, 5 μM DMSO, 1 μM DMH2, or 5 μM DMH2 for 24 and 48 hours. BrdU incorporation was measured using the Cell Proliferation ELISA, BrdU colorimetric kit as per manufacture's instruction (Roche, Indianapolis, […]). Cells were incubated with BrdU labeling solution for 2 hours, fixed/denatured, and BrdU located with a peroxidase-conjugated anti-BrdU antibody. Knockdown of all type I BMP receptors were performed in the H1299 cells by transfecting siRNA for alk2, alk3, and alk6 or control siRNA. Three days after transfection BrdU incorporation was determined. Studies were performed 4 times in triplicate.

For CN(C)CCCOc1ccc(-c2cnc3c(-c4ccnc5ccccc45)cnn3c2)cc1 [DMH2], the “inhibition of alk2 activity” value [1] is given as “inhibit”, the “cell death (percentage of cells taking up ethidium bromide)” value [2] is given as “significant increase in cell death” and the “cell growth (number of cells)” value ([3]; H1299, DMEM 5% FCS, 10 μM Dorsomorphin or 1 μM DMH1, DMH2, LDN) is given as “significantly more growth inhibition than DMH1”. The “cell growth (number of cells)” value ([3]; H1299 cultured in SFM, 1 μM) was “significant inhibition of cell growth”, the “cell growth (number of cells)” value [4] was “significantly more growth inhibition than DMH1” and the “proliferation (BrdU incorporation)” value ([5]; 24 hours) was “dose dependent decrease in proliferation”. For the same compound, the “proliferation (BrdU incorporation)” value ([5]; 48 hours) was “more profound effect”.
